From publication PMC12090178, “Exploring the Potential of Homologous Recombination Protein PALB2 in Synthetic Lethal Combinations” (ACS Chemical Biology, 2025)
Entries after “also recorded” stand apart in the source; their conditions may differ. Where no end group is shown, it is not given here.

What was measured:
[1] = molecular target: BRCA2 21-39 (Homo sapiens) (UniProt P51587); conditions: cited from earlier work
SmBiT-PALB2 = test: NanoBit protein-protein interaction assay in HEK293 cells; assay type: cell-based; conditions: BRCA2 peptide fused to LgBiT, HEK293, 24 h after transfection, signal normalized to empty vector
Method: The NanoBit CMV MCS BiBiT-Ready Vector (Promega) was modified to express PALB2 with a C-Terminal SmBit and the BRCA2 N-terminal peptide with a N-terminal LgBit. 5000 HEK293 cells were seeded in each well of a 96-well plate with a white bottom and grown for 24 h with cell medium (DMEM supplemented with 10% FCS at 37 °C with 5% CO2). The plasmid (100 ng) was transfected with FuGene HD (Promega, E5911) and incubated for 24 h. Then, Nano-Glo Live cell assay substrate (Promega) was added and the luminescence signal was recorded for 1000 ms. Signal was normalized to empty vector.
3 PALB2-BRCA2 interaction assays
0.5 million HEK293 cells were seeded per well in a 6-well plate. After 24 h, 2 μg of plasmid pCMV-FLAG-PALB2-IKZF3d or pCMV-FLAG-GFP-IKZF3d (control group) was transiently transfected with TurboFect (Thermo Scientific, e.g. R0531 or R0533) int o each well . After 36 h , the medium of at least 3 wells was removed. The cells were washed once with cold PBS on ice. […] The samples were analyzed by Western Blot. […]
NanoBiT CMV MCS BiBiT-Ready Vector (Promega) was used to construct a plasmid that can express LgBit fusion and SmBit fusion at the same time in cells. […] 24 hours after transfection, the luminescence signal of each well was obtained by adding Nano-Glo Live Cell Assay System (Promega) and the signal was read on a T e can S p ark 10M ( Tecan) for 1000 ms without temperature control.

Rad51 foci = Rad51 foci assay; assay type: cell-based; conditions: Pom 10 μM 24 h, then CPT 10 nM 12 h
Method: 50,000 cells (WT HEK293 or HEK293-PALB2^IKZF 3d/IKZF 3d) were seeded on coverslips and cultured with Pom (10 μM). After 24 h, CPT was added (10 nM). […] After removing the BSA-containing PBS, coverslips were incubated with primary antibody (Alexa Fluor 488 Anti-Rad51 antibody [EPR4030(3)] (Abcam, ab309674, RRID/AB_3675862), 1:500 in PBS) for 2 h and washed with PBS (3 times). Then, coverslips were mounted with antifade mountant with DAPI (Invitrogen) and fluorescence images were recorded by confocal microscopy (Leica Point Scanning Confocal SP8). Rad51 foci numbers in each cell were counted with Fiji ImageJ.
6 Homologous recombination assay
DR-GFP1 substrate (a gift from Maria Jasin, Addgene plasmid #26475; RRID:Addgene_26475) is flanked by human AAVS1 homology arms. Endogenous AAVS1 promoter drives T2A-hygromycin expression after integration. PX458-AAVS1 (#113194, Addgene) encodes sgRNA for human AAVS1 and expresses Cas9 nuclease. […]
(§1) After obtaining cells carrying the DR-GFP reporter, cells were maintained in medium with 10 µM pomalidomide for 24 hours. […] Four days after transfection, cells were resuspended in PBS and analyzed by flow cytometry using a BD LSR Fortessa. […]
(§2) primary antibody incubation, coverslips were washed 3 times with PBS. […] Fluorescence images were taken by confocal microscopy (LEICA POINT SCANNING CONFOCAL SP8). RAD51 f o ci numbers in each cell we re counted with Fiji ImageJ.

[2] = tested on: homologous recombination repair (DR-GFP reporter); test: DR-GFP reporter assay of homologous recombination; assay type: cell-based
Method: DR-GFP plasmid[53] (a gift from Maria Jasin, Addgene plasmid #26475; RRID/Addgene_26475) was transfected into HEK293 cells with TurboFect (Thermo Scientific) at 70% confluency and selected with hygromycin (0.1 g/L, Invivogen) after 48 h. Transfected cells were moved to a 150 mm cell culture dish and cultured in DMEM medium with hygromycin (0.1 g/L). After obtaining cells carrying the DR-GFP reporter, the cells were treated with Pom for 24 h. Cells were then transfected with a modified pCBASceI[53] (a gift from Maria Jasin, Addgene plasmid #26477; RRID/Addgene_26477, I-SceI was expressed with P2A-mCherry to select for positively transfected cells) to introduce DSB at the I-SceI site in inserted DR-GFP plasmid. Four days after transfection, cells were resuspended in PBS and analyzed by flow cytometry.
6 Homologous recombination assay […]
as §1, §2

PALB2-IKZF3d = test: IMiD-induced degradation of PALB2-IKZF3d (Western blot); assay type: cell-based; conditions: for degradation of PALB2 in IKZF3d knock-in cells: homozygous IKZF3d knock-in HEK293 cells, 24 h treatment
Method: 5.1 Degradation of PALB2 and UPP rescue assays
To show PALB2 deegradation, cells were treated with pomalidomide at the indicated concentrations for 24 h. The cells were subsequently lysed and prepared for gel electrophoresis and western blotting.
To show UPP rescue, MG132 and MLN4924 were used to inhibit the ubiquitination-proteasome degradation pathway. The cells were first treated with 1 μM MG132 or 1 μM MLN4924. After 6 h, pomalidomide was added to a final concentration of 10 μM. After 18 h, the cells were collected and lysed.
To show PALB2 recovery, the cells were first treated with 10 μM pomalidomide or 10 μM iberdomide for 24 h. After that, the culture medium was removed, the cells were washed three times with fresh culture medium and then cultured with culture medium without IMiDs.
The cells were then collected an d l yse d . […]
Figure S7. A). Degradation of endogenous PALB2.
B). PALB2 de gra dation rescue expe ri ment. The cells in the degradation rescue group w ere first t reated with 1 μ M MG132 and 1 μ M M LN49 24 for 6 hou rs and then t reated with 10 μ M pomalidomide for 1 8 hours. Cell samples were collected for WB analysis. The asterisk represents a nonspecific band of PALB 2 with t his antibody. […]

[3] = tested on: HEK293 PALB2 IKZF3d/IKZF3d knock-in cells; test: Cell viability assay (WST-1); assay type: cell-based; conditions: 4 days (96 h), Pom 0, 5, 10 and 40 μM, WST-1
[4] = molecular target: PALB2 C-terminal WD40 domain; conditions: previous structural work; read-out: binding affinity to PALB2; cited from earlier work
Method: Previous structural work on the PALB2 C-terminal WD40 domain identified a small fragment of BRCA2 (residues 21–39) with an approximately 600 nM binding affinity (600 nM) to PALB2 (see Figure 2A for structure).[16] […] Binding of the BRCA2(21–39) peptide using fluorescence polarization (FP) with fluorescein (FAM) indeed gave a value in close alignment with the previous report (Figure 2B).[16] Building from this observation we further characterized the binding of amino acids 1 ...

[5] = molecular target: T1, PALB2 C-terminal WD40 domain (UniProt Q86YC2 835-1186); test: fluorescence polarisation; not told for these peptides whether direct (labelled peptide) or displacement (dark peptide at 10 μM added to the PALB2C dilution series with 10 nM fluorescent peptide; competitive binding model); 25 °C; conditions: both partners purified
T1 construct: PALB2 (partner and localizer of BRCA2), C-terminal WD40 beta-propeller domain; as I recall that construct spans about residues 835-1186; methods are in the Supporting Information; also called PALB2 C-terminal domain
T1 sequence: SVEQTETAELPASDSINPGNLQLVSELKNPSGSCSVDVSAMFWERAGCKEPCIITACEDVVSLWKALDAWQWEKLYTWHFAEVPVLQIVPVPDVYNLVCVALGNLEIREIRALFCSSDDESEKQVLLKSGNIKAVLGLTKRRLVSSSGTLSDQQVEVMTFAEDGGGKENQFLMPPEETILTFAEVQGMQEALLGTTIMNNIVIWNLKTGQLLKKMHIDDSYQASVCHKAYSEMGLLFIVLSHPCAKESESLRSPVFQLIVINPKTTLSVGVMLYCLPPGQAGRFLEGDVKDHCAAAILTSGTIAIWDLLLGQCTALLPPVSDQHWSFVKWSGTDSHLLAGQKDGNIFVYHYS

## PALB2 WD40 (from UniProt Q86YC2)
[1]
  Kd: 0.6 µM

## W31R mutation of the BRCA(21–39) peptide: point mutated BRCA2 peptide (21-39, W31R) fused with LgBit; negative control (KADLGPISLNRFEELSSEA; also: fused with LgBiT)
SmBiT-PALB2
  NanoBit interaction signal with PALB2: complete loss of the interaction signal

## Nc1cccc2c1C(=O)N(C1CCC(=O)NC1=O)C2=O (stereo not shown) [Pom, pomalidomide]
Rad51 foci; PALB2 IKZF3d/IKZF3d cells
  number of Rad51 foci formed in response to DSBs by camptothecin: significantly decrease
Rad51 foci; PALB2 wild-type cells
  compromised Rad51 foci formation: not observed
[2]; HEK293 wild-type cells, Pom vs DMSO control
  GFP-positive cells (DR-GFP): remained largely unchanged
[2]; PALB2 IKZF3d/IKZF3d cells, 10 μM Pom 24 h before I-SceI transfection, flow cytometry after 4 days
  GFP-positive cells (DR-GFP): notable decrease in GFP-positive cells
PALB2-IKZF3d; 10 μM IMiD for 24 h, then medium removed and cells washed, knock-in cells
  recovery of PALB2 levels after wash out: PALB2 levels recover after 24 h
PALB2-IKZF3d; HEK293, transient transfection, 10 μM pomalidomide, 24 h
  degradation of transiently expressed PALB2-IKZF3d fusion: occurred only with the C-terminal fusion; also recorded: shows degradation
PALB2-IKZF3d
  degradation of PALB2 in IKZF3d knock-in cells: significant degradation of PALB2
PALB2-IKZF3d; listed as pomalidomide
  degradation of PALB2 in IKZF3d knock-in cells: degrade most of the endogenous PA LB2
[3]
  viability of WT and KI cell lines with Pom alone: did not show strong differences

## BRCA2 (residues 21–39): small fragment of BRCA2 (residues 21-39) from previous structural work (fluorescein-GGKADLGPISLNWFEELSSEA)
[4]
  Kd: ~0.6 µM

B1: BRCA(23–33) (peptide, UniProt P51587 23-33, looked up)
peptide: DLGPISLNWFE
notes: BRCA2 residues 23-33; Rink amide beads: probably a C-terminal amide (my surmise); also called absolute minimal peptide; source: synthetic peptide (SPPS, preparative HPLC)
[5]
  Kd: 8 µM
